For 30 compounds, Ki results are on record in patent publication US6610689B2, “HIV protease inhibitors based on amino acid derivatives” (priority 2001, dated 2003).

Counter-ions that a name gives are not always drawn.

One assay addresses T1, HIV protease (Human immunodeficiency virus type 1 group M subtype B, UniProt P04585).
T1 construct: A third viral enzyme known as protease then cleaves the polyproteins
As to the kind of experiment: Enzymatic Assay for Determining the Inhibition Constant (Ki) of Synthetic Compounds Targeting the HIV Protease (fluorometric FRET assay).
Settings: not given
Format: biochemical. The gist of the method:
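Ki obtained via the Henderson equation from enzyme velocities with and without compound, accounting for substrate concentration and Km. Activity followed by FRET fluorescence from cleavage of a substrate flanked by EDANS donor and DABCYL acceptor.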
For `CC(C)CN([C@H](CO)CCCCNC(=O)[C@H](Cc1c[nH]c2ccccc12)NC(=O)C(C)C)S(=O)(=O)c1ccc(N)cc1` [Example 184, (2S,2′S) 2-N-(4-Aminobenzenesulfonyl)-2-N-isobutyl-6-N-(N′α-isobutyryl-S-tryptophanyl)-2,6-diaminohexanol], the inhibition constant (Ki) (usually a dissociation constant, usually derived from enzyme kinetics or from competition with a known ligand) was determined as 1.6 nM.

Turning to `COc1ccc(NC(=O)N[C@@H](Cc2ccccc2)C(=O)NCCCC[C@@H](C(=O)O)N(CC(C)C)S(=O)(=O)c2ccc(C)cc2)cc1` [Example 196, Nα-Isobutyl-Nα-(4-methylbenzenesulfonyl)-Nε-[N′α-(4-methoxyanilinecarbonyl)-L-phenylalanyl]-L-lysine], the Ki is 0.5 nM.

`Cc1ccc(S(=O)(=O)NC(Cc2c[nH]c3ccccc23)C(=NC#N)NCCCCC(C(=O)O)N(CC(C)C)S(=O)(=O)c2ccc(C)cc2)cc1` [Example 103, Nα-Isobutyl-Nα-(4-methylbenzenesulfonyl)-Nε-[N′α-(4-methylbenzenesulfonyl)-L-tryptophanyl-N-cyanoamidine]-L-lysine] gave a Ki of 1.1 nM.

`Cc1ccc(S(=O)(=O)N[C@@H](Cc2ccccc2)C(=O)NCCCC[C@@H](C(=O)O)N(CC(C)C)S(=O)(=O)c2ccc(C)cc2)cc1` [Example 1, Nα-Isobutyl-Nα-(4-methylbenzenesulfonyl)-Nε-[N′α-(4-methylbenzenesulfonyl)-L-phenylalanyl]-L-lysine] had an inhibition constant (Ki) of 1.1 nM.

On to `CC(C)CN([C@H](CO)CCCCNC(=O)CN(Cc1ccccc1)c1ccccc1)S(=O)(=O)c1ccc(N)cc1` [Example 182, (2S) 2-N-(4-Aminobenzenesulfonyl)-2-N-isobutyl-6-N-(N′α-benzyl-N′α-phenylglycyl)-2,6-diaminohexanol], for which the affinity corresponds to a Ki of 2.4 nM.

The compound `COc1cccc(CNCC(=O)NCCCC[C@@H](C(=O)O)N(CC(C)C)S(=O)(=O)c2ccc(C)cc2)c1OC` [Example 107, Nα-Isobutyl-Nα-(4-methylbenzenesulfonyl)-Nε-[N′α-(2,3-dimethoxybenzyl)glycyl]-L-lysine] came in with a Ki of 52 nM.

Compound `COC(=O)[C@H](CCCCNC(=O)[C@H](Cc1c[nH]c2ccccc12)NS(=O)(=O)c1ccc(C)cc1)N(CC(C)C)S(=O)(=O)c1ccc(C)cc1` [Example 69, Nα-Isobutyl-Nα-(4-methylbenzenesulfonyl)-Nε-[N′α-(4-methylbenzenesulfonyl)-L-tryptophanyl]-L-lysine Methyl Ester] yielded an inhibitory constant (Ki) greater than 300 nM.

As for `COc1ccc(S(=O)(=O)N(CC(C)C)[C@H](CO)CCCCNC(=O)[C@H](Cc2c[nH]c3ccccc23)NS(=O)(=O)c2ccc(C)cc2)cc1` [Example 149, (2S,2′S) 2-N-Isobutyl-2-N-(4-methoxybenzenesulfonyl)-6-N-[N′α-(4-methylbenzenesulfonyl)-S-tryptophanyl]-2,6-diaminohexanol], the inhibitory constant (Ki) amounted to 7.5 nM.

With `Cc1ccc(S(=O)(=O)N(CC(C)C)[C@@H](CCCCNC(=O)[C@H](CC(C)C)NS(=O)(=O)c2ccc([N+](=O)[O-])cc2)C(=O)O)cc1` [Example 16, Nα-Isobutyl-Nα-(4-methylbenzenesulfonyl)-Nε-[N′α-(4-nitrobenzenesulfonyl)-L-leucyl]-L-lysine], the affinity corresponds to a Ki of 34 nM.

For the compound `Cc1ccc(S(=O)(=O)N(CC(C)C)C(CCCCNC(=O)C(Cc2ccccc2)NC(=O)OC2CCOC2)C(=O)O)cc1` [Example 80, Nα-Isobutyl-Nα-(4-methylbenzenesulfonyl)-Nε-[N′α-(carbotetrahydro-3-furanyloxy)-L-phenylalanyl]-L-lysine], the inhibitory constant (Ki) stood at 1.4 nM.

Compound `COC(=O)N[C@@H](Cc1c[nH]c2ccccc12)C(=O)NCCCC[C@@H](CO)N(CC(C)C)S(=O)(=O)c1ccc(C)cc1` [Example 190, (2S,2′S) 2-N-Isobutyl-2-N-(4-methylbenzenesulfonyl)-6-N-(N′α-methoxycarbonyl-S-tryptophanyl)-2,6-diaminohexanol] displayed an inhibition constant (Ki) of 2.2 nM.

In turn, `CC(=O)Nc1ccc(S(=O)(=O)N[C@@H](Cc2ccccc2)C(=O)NCCCC[C@@H](C(=O)O)N(CC(C)C)S(=O)(=O)c2ccc(C)cc2)cc1` [Example 3, Nα-Isobutyl-Nα-(4-methylbenzenesulfonyl)-Nε-[N′α-(4-acetamidobenzenesulfonyl)-L-phenylalanyl]-L-lysine] showed a Ki of 0.977 nM.

In turn, `Cc1ccc(S(=O)(=O)N(CC(C)C)C(CCCCNC(=O)C(Cc2c[nH]c3ccccc23)NS(=O)(=O)c2ccccc2)C(=O)OCC(O)CO)cc1` [Example 104, Nα-Isobutyl-Nα-(4-methylbenzenesulfonyl)-Nε-(N′α-benzenesulfonyl-L-tryptophanyl)-L-lysine 2,3-Dihydroxypropyl Ester] showed an inhibition constant (Ki) greater than 300 nM.

As to `Cc1ccc(S(=O)(=O)N(CC(C)C)[C@@H](CCCCNC(=O)[C@H](Cc2cn(Cc3ccccc3)cn2)NC(=O)OC(C)(C)C)C(=O)O)cc1` [Example 85, Nα-Isobutyl-Nα-(4-methylbenzenesulfonyl)-Nε-(N′α-tert-butoxycarbonyl-Nτ-benzyl-L-histidinyl)-L-lysine], the affinity corresponds to a Ki of 124 nM.

`COC(=O)[C@H](CCCCNC(=O)[C@H](Cc1ccccc1)NS(=O)(=O)c1cccs1)N(CC(C)C)S(=O)(=O)c1ccc(C)cc1` [Example 57, Nα-Isobutyl-Nα-(4-methylbenzenesulfonyl)-Nε-[N′α-(2-thiophenesulfonyl)-L-phenylalanyl]-L-lysine Methyl Ester] showed a Ki greater than 300 nM.

Take `Cc1ccc(S(=O)(=O)N(CC(C)C)[C@H](CO)CCCCNC(=O)[C@H](Cc2c[nH]c3ccccc23)NS(=O)(=O)c2ccc(N)cc2)cc1` [Example 161, (2S,2′S) 2-N-Isobutyl-2-N-(4-methylbenzenesulfonyl)-6-N-[N′α-(4-aminobenzenesulfonyl)-S-tryptophanyl]-2,6-diaminohexanol]: affinity was put at a Ki of 1.4 nM.

On to `Cc1ccc(S(=O)(=O)N(CC(C)C)[C@@H](CCCCNC(=O)[C@H](Cc2ccccc2)NC(=O)OC(C)(C)C)C(=O)O)cc1` [Example 78, Nα-Isobutyl-Nα-(4-methylbenzenesulfonyl)-Nε-(N′α-tert-butoxycarbonyl-L-phenylalanyl)-L-lysine], for which the Ki worked out at 2.5 nM.

As to `Cc1ccc(S(=O)(=O)N(CC(C)C)[C@H](CO)CCCCNC(=O)[C@H](Cc2c[nH]c3ccccc23)NC(=O)C(C)(C)C)cc1` [Example 117, (2S,2′S) 2-N-Isobutyl-2-N-(4-methylbenzenesulfonyl)-6-N-(N′α-pivaloyl-S-tryptophanyl)-2,6-diaminohexanol], affinity was put at a Ki of 0.428 nM.

The compound `CCC[C@H](NS(=O)(=O)c1ccccc1)C(=O)NCCCC[C@@H](C(=O)O)N(CC(C)C)S(=O)(=O)c1ccc(C)cc1` [Example 14, Nα-Isobutyl-Nα-(4-methylbenzenesulfonyl)-Nε-[N′α-(benzenesulfonyl)-L-norvalyl]-L-lysine] displayed an inhibitory constant (Ki) of 185 nM.

Compound `Cc1ccc(S(=O)(=O)N[C@@H](CCC(=O)O)C(=O)NCCCC[C@@H](C(=O)O)N(CC(C)C)S(=O)(=O)c2ccc(C)cc2)cc1` [Example 38, Nα-Isobutyl-Nα-(4-methylbenzenesulfonyl)-Nε-[N′α-(4-methylbenzenesulfonyl)-L-glutamyl]-L-lysine] displayed a Ki of 220 nM.

On to `Cc1ccc(S(=O)(=O)N[C@H](Cc2ccccc2)C(=O)NCCCC[C@H](C(=O)O)N(CC(C)C)S(=O)(=O)c2ccc(C)cc2)cc1` [Example 66, Nα-Isobutyl-Nα-(4-methylbenzenesulfonyl)-Nε-[N′α-(4-methylbenzenesulfonyl)-D-phenylalanyl]-D-lysine], for which the inhibition constant (Ki) was greater than 300 nM.

The compound `Cc1ccc(S(=O)(=O)N[C@@H](Cc2ccccc2)C(=O)NCCCC[C@@H](C(=O)O)N(CC(C)C)S(=O)(=O)c2ccccc2)cc1` [Example 200, Nα-Benzenesulfonyl-Nα-isobutyl-Nε-[N′α-(4-methylbenzenesulfonyl)-L-phenylalanyl]-L-lysine] came in with an inhibitory constant (Ki) of 31 nM.

The same assay, now with this note: Anti-protease activity of Ne-amino acid substituted L-lysine derivatives and analogs of formula I; read-out: Ki.
Regarding `Cc1ccc(S(=O)(=O)N[C@@H](Cc2ccc([N+](=O)[O-])cc2)C(=O)NCCCC[C@@H](C(=O)O)N(CC(C)C)S(=O)(=O)c2ccc(C)cc2)cc1` [Example 26, Nα-Isobutyl-Nα-(4-methylbenzenesulfonyl)-Nε-[N′α-(4-methylbenzenesulfonyl)-L-4-nitrophenylalanyl]-L-lysine], the Ki stood at 2.6 nM.

Take “Nα-Isobutyl-Nα-(4-methylbenzenesulfonyl)-Nε-[N′α-(4-methylbenzenesulfonyl)-L-phenylalanyl-N-cyanoamidine]-L-lysine [Example 98]”: the inhibitory constant (Ki) stood at 5.1 nM.

On to “Nα-Isobutyl-Nα-(4-methylbenzenesulfonyl)-Nε-[N′α-(4-bromobenzenesulfonyl)-L-phenylalanyl]-L-lysine [Example 20]”, for which the Ki is 19 nM.

The same assay, now with this note: Table 1, compounds of formula I; read-out: Ki (anti-protease activity).
Take `Cc1ccc(S(=O)(=O)N(CC(C)C)[C@H](CO)CCCCNC(=O)[C@H](Cc2ccc(CNC(=O)OCC3c4ccccc4-c4ccccc43)cc2)NC(=O)OC(C)(C)C)cc1` [Example 144, (2S,2′S) 2-N-Isobutyl-2-N-(4-methylbenzenesulfonyl)-6-N-[N′α-tert-butoxycarbonyl-S-4-(9-fluorenemethoxycarbonylaminomethyl)phenylalanyl]-2,6-diaminohexanol]: the Ki is greater than 300 nM.

For `Cc1ccc(S(=O)(=O)N(CC(C)C)[C@@H](CCCCNC(=O)CNc2ccccc2)C(=O)O)cc1` [Example 105, Nα-Isobutyl-Nα-(4-methylbenzenesulfonyl)-Nε-(N′α-phenylglycyl)-L-lysine], the Ki is 7.7 nM.

As for “Nα-Isobutyl-Nα-(4-methylbenzenesulfonyl)-Nε-(N′α-benzylglycyl)-L-lysine [Example 109]”, the Ki is greater than 300 nM.

On to `Cc1ccc(S(=O)(=O)N(CC(C)C)[C@H](CO)CCCCNC(=O)CN(CCc2ccccc2)c2ccccc2)cc1` [Example 160, (2S) 2-N-Isobutyl-2-N-(4-methylbenzenesulfonyl)-6-N-(N′α-phenethyl-N′α-phenylglycyl]-2,6-diaminohexanol], for which the inhibition constant Ki is 52 nM.

As to `COc1ccc(S(=O)(=O)N(CC(C)C)[C@H](CO)CCCCNC(=O)[C@@H](N)Cc2c[nH]c3ccccc23)cc1` [Example 146, (2S,2′S) 2-N-Isobutyl-2-N-(4-methoxybenzenesullfonyl)-6-N-(S-tryptophanyl)-2,6-diaminohexanol Trifluoroacetic Acid Salt], the inhibition constant (Ki) worked out at 15 nM.
